According to publication PMC4755933 (Journal of medicinal chemistry, 2015):

Assays:
[1] = molecular target: T1, TRIM24(PHD-bromo) (Homo sapiens, UniProt O15164); conditions: TRIM24 AlphaLisa assay in HeLa cells, in words
T1 sequence (O15164 824-1006 limits assumed): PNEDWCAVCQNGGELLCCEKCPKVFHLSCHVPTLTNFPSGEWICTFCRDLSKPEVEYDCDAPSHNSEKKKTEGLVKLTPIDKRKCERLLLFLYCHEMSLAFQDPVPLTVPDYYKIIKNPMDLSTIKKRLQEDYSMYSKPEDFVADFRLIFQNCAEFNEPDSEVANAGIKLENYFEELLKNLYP

[2] = CACO-2 permeability assay
[3] = molecular target: T2, bromodomain of TRIM24 (Homo sapiens, UniProt O15164); experiment: AlphaScreen biochemical bromodomain-H3K23; assay type: binding; conditions: from TRIM24 IC50
T2 sequence (O15164 899-1004 limits assumed): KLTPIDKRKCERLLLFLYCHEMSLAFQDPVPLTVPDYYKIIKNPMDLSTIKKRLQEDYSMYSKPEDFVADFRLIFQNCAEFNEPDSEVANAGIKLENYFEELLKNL

[4] = system: panel of 32 bromodomains; conditions: 1 μM concentration

Compound | ligand efficiency (LE) [3] | other results
CC(C)COc1cccc(Oc2ccc3c(c2)n(C)c(=O)n3C)c1 [Compound 7j, 1,3-dimethyl-5-[3-(2-methylpropoxy)phenoxy]-2,3-dihydro-1H-1,3-benzodiazol-2-one] |  | cellular activity [1]: no cellular activity
COc1ccc(S(=O)(=O)Nc2cc3c(cc2Oc2cccc(OCc4ccccc4)c2)n(C)c(=O)n3C)cc1OC [Compound 7b, N-{6-[3-(benzyloxy)phenoxy]-1,3-dimethyl-2-oxo-2,3-dihydro-1H-1,3-benzodiazol-5-yl}-3,4-dimethoxybenzene-1-sulfonamide] | 0.23 | CACO-2 flux from the apical to basolateral side (Papp) [2]: 21 Papp×10^−6 cm·s^−1
Cn1cnc(S(=O)(=O)Nc2cc3c(cc2Oc2ccc(OCc4ccccc4)cc2)n(C)c(=O)n3C)c1 [Compound 6, N-{6-[4-(benzyloxy)phenoxy]-1,3-dimethyl-2-oxo-2,3-dihydro-1H-1,3-benzodiazol-5-yl}-1-methyl-1H-imidazole-4-sulfonamide] |  | cellular activity [1]: no cellular activity
Cc1nc(-c2ccc3c(c2)CC(=O)N3C)cs1 [Compound 1] | 0.41 | 
CCCOc1cccc(Oc2cc3c(cc2NS(=O)(=O)c2ccc(OC)c(OC)c2)n(C)c(=O)n3C)c1 [Compound 7e, N-[1,3-dimethyl-2-oxo-6-(3-propoxyphenoxy)-2,3-dihydro-1H-1,3-benzodiazol-5-yl]-3,4-dimethoxybenzene-1-sulfonamide] | 0.27 | 
COc1ccc(Oc2cc3c(cc2NS(=O)(=O)c2ccccc2)n(C)c(=O)n3C)cc1 [Compound 5g] | 0.26 | 
Cn1c(=O)n(C)c2cc(NS(=O)(=O)c3ccc(C4CCCCC4)cc3)ccc21 [Compound 5e, 4-cyclohexyl-N-(1,3-dimethyl-2-oxo-2,3-dihydro-1H-1,3-benzodiazol-5-yl)benzene-1-sulfonamide] | 0.28 | 
CCCOc1cc(OCCCCN(C)C)cc(Oc2cc3c(cc2NS(=O)(=O)c2ccc(OC)c(OC)c2)n(C)c(=O)n3C)c1 [Compound 8i, N-(6-{3-[4-(dimethylamino)butoxy]-5-propoxyphenoxy}-1,3-dimethyl-2-oxo-2,3-dihydro-1H-1,3-benzodiazol-5-yl)-3,4-dimethoxybenzene-1-sulfonamide] |  | interactions against 26 other bromodomains [4]: No interactions were detected
